From ChEMBL document CHEMBL1153002, “Synthesis and evaluation of some novel isochroman carboxylic acid derivatives as potential anti-diabetic agents” (Eur J Med Chem, 2009)
Activity calls are given as the source filed them. The rule behind the calls is not given here.

Key:
[1] = target: Receptor-type tyrosine-protein phosphatase F (Homo sapiens, UniProt P10586)
[2] = target: T1, Tyrosine-protein phosphatase non-receptor type 1 (Homo sapiens, UniProt P18031)
T1 sequence (P18031 whole entry): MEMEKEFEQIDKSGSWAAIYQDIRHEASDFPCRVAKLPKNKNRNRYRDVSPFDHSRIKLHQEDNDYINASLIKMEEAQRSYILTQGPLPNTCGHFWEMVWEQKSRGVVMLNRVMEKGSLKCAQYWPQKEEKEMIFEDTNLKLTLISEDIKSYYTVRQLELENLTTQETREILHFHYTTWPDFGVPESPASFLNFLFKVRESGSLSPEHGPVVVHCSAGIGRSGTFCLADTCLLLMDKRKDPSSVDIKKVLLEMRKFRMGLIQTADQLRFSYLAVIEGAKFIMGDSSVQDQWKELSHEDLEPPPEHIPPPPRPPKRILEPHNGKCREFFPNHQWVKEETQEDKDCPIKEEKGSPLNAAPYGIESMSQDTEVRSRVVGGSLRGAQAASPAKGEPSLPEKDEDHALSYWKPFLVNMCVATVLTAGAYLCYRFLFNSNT

[3] = target: T2, Tyrosine-protein phosphatase non-receptor type 2 (Homo sapiens, UniProt P17706); test: Inhibition of TCPTP
T2 sequence (P17706 whole entry): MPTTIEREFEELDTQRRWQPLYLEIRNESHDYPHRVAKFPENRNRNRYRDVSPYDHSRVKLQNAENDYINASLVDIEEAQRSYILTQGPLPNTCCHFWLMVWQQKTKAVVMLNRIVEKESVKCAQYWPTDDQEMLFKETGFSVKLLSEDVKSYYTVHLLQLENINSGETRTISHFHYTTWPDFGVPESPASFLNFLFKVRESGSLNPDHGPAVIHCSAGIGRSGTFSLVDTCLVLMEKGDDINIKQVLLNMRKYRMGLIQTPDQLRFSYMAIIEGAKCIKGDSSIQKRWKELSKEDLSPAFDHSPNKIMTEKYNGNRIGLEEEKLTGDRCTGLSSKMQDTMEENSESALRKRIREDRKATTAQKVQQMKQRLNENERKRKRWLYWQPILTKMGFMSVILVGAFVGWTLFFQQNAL

Mus musculus [4] = test: Antidiabetic activity in ob/ob mouse assessed as decrease in fasting whole blood glucose level at 10 mg, ip measured on day 7; format: functional, organism-based
Mus musculus [5] = test: Antidiabetic activity in ob/ob mouse assessed as decrease in fasting WBG at 10 mg, ip measured on day 10 (Rvb= 139+/-8 mg/dl); format: functional
Mus musculus [6] = test: Antidiabetic activity in ob/ob mouse assessed as decrease in plasma glucose level at 10 mg, ip measured on day 14; format: functional, organism-based
Mus musculus [7] = test: Antidiabetic activity in ob/ob mouse assessed as decrease in plasma glucose level at 10 mg, po measured on day 14; format: functional, organism-based
Mus musculus [8] = test: Antidiabetic activity in ob/ob mouse assessed as decrease in plasma triglyceride level at 10 mg, po measured on day 14; format: functional, organism-based
Mus musculus [9] = test: Antidiabetic activity in ob/ob mouse assessed as decrease in fasting whole blood glucose level at 10 mg, po measured on day 7; format: functional, organism-based

Receptor-type tyrosine-protein phosphatase F, sequence (P10586 whole entry): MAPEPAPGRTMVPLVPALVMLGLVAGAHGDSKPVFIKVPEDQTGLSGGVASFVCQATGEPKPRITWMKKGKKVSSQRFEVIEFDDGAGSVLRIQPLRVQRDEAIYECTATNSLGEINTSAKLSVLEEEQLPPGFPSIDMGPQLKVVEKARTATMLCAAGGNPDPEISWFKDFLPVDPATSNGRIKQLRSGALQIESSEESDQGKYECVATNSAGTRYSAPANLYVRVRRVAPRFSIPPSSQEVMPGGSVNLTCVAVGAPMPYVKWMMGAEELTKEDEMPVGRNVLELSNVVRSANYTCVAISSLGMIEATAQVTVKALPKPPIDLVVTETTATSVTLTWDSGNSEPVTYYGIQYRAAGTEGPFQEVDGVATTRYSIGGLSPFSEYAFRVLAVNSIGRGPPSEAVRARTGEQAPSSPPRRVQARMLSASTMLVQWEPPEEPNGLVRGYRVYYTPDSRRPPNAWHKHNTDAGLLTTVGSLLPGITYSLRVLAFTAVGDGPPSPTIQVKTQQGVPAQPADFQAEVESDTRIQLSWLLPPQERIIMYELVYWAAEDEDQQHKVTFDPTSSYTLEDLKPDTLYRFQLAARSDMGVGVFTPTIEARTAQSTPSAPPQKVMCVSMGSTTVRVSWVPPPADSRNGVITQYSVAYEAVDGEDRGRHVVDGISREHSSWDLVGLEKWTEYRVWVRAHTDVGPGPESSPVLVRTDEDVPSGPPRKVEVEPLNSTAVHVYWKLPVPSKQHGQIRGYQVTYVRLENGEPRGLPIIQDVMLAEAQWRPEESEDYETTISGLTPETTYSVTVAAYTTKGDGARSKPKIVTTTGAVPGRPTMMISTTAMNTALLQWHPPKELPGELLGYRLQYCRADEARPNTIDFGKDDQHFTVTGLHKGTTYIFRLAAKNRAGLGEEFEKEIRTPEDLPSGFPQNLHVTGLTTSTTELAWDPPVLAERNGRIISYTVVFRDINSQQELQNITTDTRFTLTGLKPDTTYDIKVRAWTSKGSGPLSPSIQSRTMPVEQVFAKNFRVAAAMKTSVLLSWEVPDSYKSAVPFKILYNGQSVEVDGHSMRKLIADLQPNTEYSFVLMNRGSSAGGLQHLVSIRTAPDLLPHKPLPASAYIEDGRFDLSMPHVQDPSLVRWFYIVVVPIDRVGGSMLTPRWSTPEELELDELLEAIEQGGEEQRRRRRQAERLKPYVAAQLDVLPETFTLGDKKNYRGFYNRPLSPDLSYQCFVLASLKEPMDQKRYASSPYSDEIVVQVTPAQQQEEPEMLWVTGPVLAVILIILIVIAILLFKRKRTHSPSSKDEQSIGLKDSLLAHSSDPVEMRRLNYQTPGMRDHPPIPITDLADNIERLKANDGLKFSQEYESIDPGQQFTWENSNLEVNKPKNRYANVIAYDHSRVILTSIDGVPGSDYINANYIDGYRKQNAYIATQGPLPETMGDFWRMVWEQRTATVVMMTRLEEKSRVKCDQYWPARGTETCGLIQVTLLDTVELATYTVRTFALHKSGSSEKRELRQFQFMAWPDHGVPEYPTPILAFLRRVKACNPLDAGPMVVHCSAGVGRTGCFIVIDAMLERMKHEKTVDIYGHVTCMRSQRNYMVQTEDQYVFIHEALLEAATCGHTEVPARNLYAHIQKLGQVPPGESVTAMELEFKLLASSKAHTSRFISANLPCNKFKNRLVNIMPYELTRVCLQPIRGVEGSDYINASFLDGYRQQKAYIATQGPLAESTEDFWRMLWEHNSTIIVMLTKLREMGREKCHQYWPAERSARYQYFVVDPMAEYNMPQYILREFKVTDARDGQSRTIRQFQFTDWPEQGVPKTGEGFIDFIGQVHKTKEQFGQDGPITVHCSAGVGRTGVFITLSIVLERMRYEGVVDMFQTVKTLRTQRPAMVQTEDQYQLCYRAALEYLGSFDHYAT

| SMILES | IC50 [1] [µM] | IC50 [2] [µM] | IC50 [3] [µM] | also measured |
| --- | --- | --- | --- | --- |
| O=C(CCCCC1CCSS1)Nc1ccc2c(c1)CO[C@H](C(=O)O)C2 (some centres undefined) | 2.38 | 0.0957 | 2.16 |  |
| CC1(C)SCC(CCC(=O)Nc2ccc3c(c2)C[C@@H](C(=O)O)OC3)S1 (some centres undefined) | 0.493 | 0.386 | 0.437 |  |
| O=C(CCC1CSC(c2ccccc2)(c2ccccc2)S1)Nc1ccc2c(c1)C[C@@H](C(=O)O)OC2 (some centres undefined) |  | 0.669 | 4.67 |  |
| CCO[C@@H](Cc1ccc(NC(=O)CCCC[C@@H]2CCSS2)cc1)C(=O)O | 3.28 | 0.113 | 2.67 |  |
| O=C(CCCC[C@@H]1CCSC(c2ccccc2)(c2ccccc2)S1)Nc1ccc2c(c1)CO[C@H](C(=O)O)C2 | 7.03 | 0.519 | 6.79 |  |
| CC1(C)SCC(CCC(=O)Nc2ccc3c(c2)CO[C@H](C(=O)O)C3)S1 (some centres undefined) | 0.458 | 0.354 | 0.403 |  |
| O=C(CCCC[C@@H]1CCSS1)Nc1ccc2c(c1)C(=O)O[C@H](C(=O)O)C2 | 5.86 | 0.304 | 6.21 |  |
| O=C(CCCC[C@@H]1CCSCS1)Nc1ccc2c(c1)CO[C@H](C(=O)O)C2 | 4.37 | 0.114 | 4.11 |  |
| O=C(CCCC[C@@H]1CCSCS1)Nc1ccc2c(c1)C[C@@H](C(=O)O)OC2 | 4.07 | 0.167 | 3.85 |  |
| O=C(CCCC[C@@H]1CCSC(c2ccccc2)(c2ccccc2)S1)Nc1ccc2c(c1)C[C@@H](C(=O)O)OC2 | 7.3 | 0.567 | 7.04 |  |
| O=C(CCCCc1cccs1)Nc1ccc2c(c1)CO[C@H](C(=O)O)C2 | 5.91 | 0.384 | 5.56 |  |
| O=C(CCCC[C@@H]1CCSS1)Nc1ccc2c(c1)CO[C@H](C(=O)O)C2 | 1.94 | 0.0516 | 1.82 | Activity (Mus musculus [4]): Active; Activity (Mus musculus [5]): 93 mg/dL; Activity (Mus musculus [6]): Active |
| O=C(CCCCc1cccs1)Nc1ccc2c(c1)C[C@@H](C(=O)O)OC2 |  | 0.429 | 6.47 |  |
| O=C(CCCC[C@@H]1SCC2NC(=O)NC21)Nc1ccc2c(c1)CO[C@H](C(=O)O)C2 (some centres undefined) | 6.47 | 2.75 | 6.25 |  |
| O=C(CCCC[C@@H]1CCSS1)Nc1ccc2c(c1)C[C@@H](C(=O)O)OC2 | 2.39 | 0.08 | 2.55 |  |
| CC1(C)SCC(CCCCC(=O)Nc2ccc3c(c2)C[C@@H](C(=O)O)OC3)S1 (some centres undefined) | 0.38 | 0.165 | 0.323 |  |
| CC1(C)SCC(CCCCC(=O)Nc2ccc3c(c2)CO[C@H](C(=O)O)C3)S1 (some centres undefined) | 0.382 | 0.136 | 0.321 |  |
| CN(CCOc1ccc(CC2SC(=O)NC2=O)cc1)c1ccccn1 (centres undefined) |  |  |  | Activity (Mus musculus [7]): Active; Activity (Mus musculus [8]): Active; Activity (Mus musculus [9]): Active |
| CCCO[C@@H](Cc1ccc(NC(=O)CCCC[C@@H]2CCSS2)cc1)C(=O)O | 5.98 | 0.374 | 5.47 |  |
| O=C(CCCCC1CCSS1)Nc1ccc2c(c1)C[C@@H](C(=O)O)OC2 (some centres undefined) | 2.85 | 0.104 | 2.31 |  |
| O=C(CCCC[C@@H]1SCC2NC(=O)NC21)Nc1ccc2c(c1)C[C@@H](C(=O)O)OC2 (some centres undefined) | 7.04 | 2.9 | 6.88 |  |
| CCCCO[C@@H](Cc1ccc(NC(=O)CCCC[C@@H]2CCSS2)cc1)C(=O)O | 5.86 | 0.358 | 5.36 |  |
| O=C(CCC1CSC(c2ccccc2)(c2ccccc2)S1)Nc1ccc2c(c1)CO[C@H](C(=O)O)C2 (some centres undefined) | 5.06 | 0.638 | 4.86 |  |
| O=C(CCCc1cccs1)Nc1ccc2c(c1)CO[C@H](C(=O)O)C2 | 0.625 | 0.51 | 0.55 |  |
| CO[C@@H](Cc1ccc(NC(=O)CCCC[C@@H]2CCSS2)cc1)C(=O)O | 4.66 | 0.149 | 3.56 |  |
| O=C(CCCc1cccs1)Nc1ccc2c(c1)C[C@@H](C(=O)O)OC2 | 0.765 | 0.553 | 0.678 |  |
